Measurements published in ChEMBL document CHEMBL6083291, “Discovery of Thiochroman Derivatives as Potent, Oral Selective Estrogen Receptor Degraders and Antagonists for the Treatment of Endocrine-Resistant Breast Cancer” (J Med Chem, 2024).

How the values were obtained:
MCF7 [1] = test: Antiproliferative activity against human MCF7 cells assessed as reduction in cell viability incubated for 6 days by CellTiter-Glo reagent based luminescence analysis; settings: Homo sapiens, MCF7, 144 h
[2] = Toxicity in Sprague-Dawley rat assessed as thickened endometrium in uterus at 0.1 mg/kg, po qd for 3 days by Hematoxylin-Eosin staining based analysis; format: organism-based; settings: in vivo, 72 h, time 3 day
[3] = Estrogenic like activity in Sprague-Dawley rat assessed as increase in ratio of uterine wet weight to body weight at 0.1 mg/kg, po qd for 3 days relative to control; format: toxicity, organism-based; settings: in vivo, 72 h, time 3 day
[4] = target: Voltage-gated inwardly rectifying potassium channel KCNH2 (Homo sapiens, UniProt Q12809); test: Inhibition of hERG expressed in CHO cells assessed as inhibition of channel current by automated Qpatch clamp analysis
[5] = Antiproliferative activity against endocrine-resistant human MCF7 Tam1 cells assessed as inhibition of cell growth; settings: Tamoxifen-resistant MCF7
MCF7 [6] = test: Antiproliferative activity against human MCF7 cells harboring ER-alpha Y537S mutant assessed as inhibition of cell growth
Estrogen receptor = target: T1, Estrogen receptor (Homo sapiens, UniProt P03372); test: Induction of ER-alpha degradation in human MCF7 cells incubated for 24 hrs by In-Cell Western blot analysis; format: cell-based
T1 sequence (P03372 whole entry): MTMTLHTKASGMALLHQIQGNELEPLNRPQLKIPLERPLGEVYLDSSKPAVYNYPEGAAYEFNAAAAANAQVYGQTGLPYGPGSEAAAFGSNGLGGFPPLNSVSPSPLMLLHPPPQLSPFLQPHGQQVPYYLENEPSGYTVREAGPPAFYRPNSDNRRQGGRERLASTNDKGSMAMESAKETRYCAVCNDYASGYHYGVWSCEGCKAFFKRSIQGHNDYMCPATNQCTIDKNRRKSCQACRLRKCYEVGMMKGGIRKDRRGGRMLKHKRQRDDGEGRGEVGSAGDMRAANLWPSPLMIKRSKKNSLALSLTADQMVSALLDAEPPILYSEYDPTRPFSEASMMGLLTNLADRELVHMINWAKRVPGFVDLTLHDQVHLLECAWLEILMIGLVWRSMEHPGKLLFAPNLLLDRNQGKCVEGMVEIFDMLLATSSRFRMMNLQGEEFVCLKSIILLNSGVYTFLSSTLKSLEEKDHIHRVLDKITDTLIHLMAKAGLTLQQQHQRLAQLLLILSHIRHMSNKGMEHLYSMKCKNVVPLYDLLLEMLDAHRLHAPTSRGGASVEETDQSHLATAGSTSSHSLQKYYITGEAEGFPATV

[7] = Antagonist activity at ER-alpha Y537S mutant (unknown origin) expressed in human MCF7 cells assessed as inhibition of ER-alpha transcription by immunofluorescence assay

Sequence of Voltage-gated inwardly rectifying potassium channel KCNH2 (Q12809 whole entry): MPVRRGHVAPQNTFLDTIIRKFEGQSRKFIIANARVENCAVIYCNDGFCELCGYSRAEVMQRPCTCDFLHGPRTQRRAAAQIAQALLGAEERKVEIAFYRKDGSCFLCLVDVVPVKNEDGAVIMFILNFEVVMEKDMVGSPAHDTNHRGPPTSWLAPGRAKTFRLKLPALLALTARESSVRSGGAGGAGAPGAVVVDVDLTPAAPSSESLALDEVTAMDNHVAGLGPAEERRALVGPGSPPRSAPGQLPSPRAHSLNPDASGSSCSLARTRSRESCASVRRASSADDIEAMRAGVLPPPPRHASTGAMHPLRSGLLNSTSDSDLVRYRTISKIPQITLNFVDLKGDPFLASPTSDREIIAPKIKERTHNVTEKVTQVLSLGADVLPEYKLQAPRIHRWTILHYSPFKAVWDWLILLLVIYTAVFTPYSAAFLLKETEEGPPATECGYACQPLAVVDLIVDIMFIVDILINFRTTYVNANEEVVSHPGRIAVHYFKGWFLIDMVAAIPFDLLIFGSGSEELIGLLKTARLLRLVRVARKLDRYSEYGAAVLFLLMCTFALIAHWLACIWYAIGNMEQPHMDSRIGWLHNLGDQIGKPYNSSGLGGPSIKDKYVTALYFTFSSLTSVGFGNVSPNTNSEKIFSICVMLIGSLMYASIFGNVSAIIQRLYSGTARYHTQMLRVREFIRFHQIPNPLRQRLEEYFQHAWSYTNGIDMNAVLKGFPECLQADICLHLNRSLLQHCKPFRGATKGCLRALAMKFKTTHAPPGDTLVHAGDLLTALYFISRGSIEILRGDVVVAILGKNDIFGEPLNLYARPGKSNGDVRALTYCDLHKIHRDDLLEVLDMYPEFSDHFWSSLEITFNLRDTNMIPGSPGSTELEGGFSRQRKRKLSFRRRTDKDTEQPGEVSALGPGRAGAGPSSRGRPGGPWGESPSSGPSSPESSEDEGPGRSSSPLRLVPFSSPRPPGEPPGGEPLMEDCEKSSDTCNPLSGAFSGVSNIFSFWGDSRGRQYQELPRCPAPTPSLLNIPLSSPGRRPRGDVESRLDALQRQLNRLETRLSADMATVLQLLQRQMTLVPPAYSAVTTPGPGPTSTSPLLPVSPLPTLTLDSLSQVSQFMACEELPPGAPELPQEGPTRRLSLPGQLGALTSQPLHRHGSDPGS

Row | Compound | IC50 (MCF7 [1]) [nM] | other results
1 | COc1ccc([C@H]2COc3cc(O)ccc3[C@H]2c2ccc(OCCN3CC(CF)C3)cc2)cn1 (racemic) | 0.86 | 
2 | C#C[C@]1(O)CC[C@H]2[C@@H]3CCc4cc(O)ccc4[C@H]3CC[C@@]21C [ETHINYL ESTRADIOL] |  | Activity [2]: Toxic; fold change (FC) [3]: 3
3 | COc1cc(F)ccc1[C@H]1COc2cc(O)ccc2[C@H]1c1ccc(OCCN2CC(CF)C2)cc1 (racemic) | 0.56 | IC50 [4]: 4.8 µM
4 | O=C1CC[C@H](N2Cc3cc(N4CCN(CC5CCN(c6ccc([C@@H]7c8ccc(O)cc8CC[C@@H]7c7ccccc7)cc6)CC5)CC4)ccc3C2=O)C(=O)N1 [VEPDEGESTRANT] | 2.7 | IC50 [5]: 2.12 nM; IC50 (MCF7 [6]): 133 nM
5 | N#Cc1cc(F)ccc1[C@H]1COc2cc(O)ccc2[C@H]1c1ccc(OCCN2CC(CF)C2)cc1 (racemic) | 4.9 | 
6 | Oc1ccc2c(c1)OC[C@H](c1ccc(F)cc1F)[C@@H]2c1ccc(NC2CN(CCCF)C2)cc1 (racemic) | 3.1 | DC50 (Estrogen receptor): 1 nM; IC50 [4]: 3.6 µM
7 | CC1(C)C[C@H](c2ccc(F)cc2F)[C@H](c2ccc(OCCN3CC(CF)C3)cc2)c2ccc(O)cc21 (racemic) | 8.8 | 
8 | Oc1ccc2c(c1)OC[C@H](c1cc(F)c(F)cc1F)[C@@H]2c1ccc(OCCN2CC(CF)C2)cc1 (racemic) |  | IC50 [4]: 2.8 µM
9 | C[C@@H]1Cc2c(ccc3[nH]ncc23)[C@@H](c2ccc(NC3CN(CCCF)C3)cn2)N1CC(F)(F)F [CAMIZESTRANT] | 0.68 | IC50 (MCF7 [6]): 21.2 nM
10 | Oc1ccc2c(c1)OC[C@H](C1CCOCC1)[C@@H]2c1ccc(OCCN2CC(CF)C2)cc1 (racemic) | 1.6 | 
11 | Oc1ccc2c(c1)SC[C@H](c1cc(F)c(F)cc1F)[C@@H]2c1ccc(OCCN2CC(CF)C2)cc1 (racemic) | 0.4 | 
12 | Oc1ccc2c(c1)SC[C@@H](c1cc(F)c(F)cc1F)[C@H]2c1ccc(OCCN2CC(CF)C2)cc1 | 714 | 
13 | Oc1ccc2c(c1)OC[C@H](c1ccc(F)cc1F)[C@@H]2c1ccc(O[C@H]2CCN(CCCF)C2)cc1 (racemic) | 7.7 | 
14 | O=C(O)c1ccc2c(c1)CCCC(c1ccc(Cl)cc1Cl)=C2c1ccc(O[C@H]2CCN(CCCF)C2)cc1 [AMCENESTRANT] | 3.9 | IC50 [7]: 57.5 nM
15 | Oc1ccc2c(c1)OCC[C@H](c1ccc(F)cc1F)[C@@H]2c1ccc(OCCN2CC(CF)C2)cc1 (racemic) | 47 | 
16 | COc1cc(F)ccc1[C@H]1CSc2cc(O)ccc2[C@H]1c1ccc(NC2CN(CCCF)C2)cc1 (racemic) | 0.9 | IC50 [4]: 22 µM
17 | COc1cc(F)ccc1[C@@H]1CSc2cc(O)ccc2[C@@H]1c1ccc(OCCN2CC(CF)C2)cc1 | 25 | 
18 | Oc1ccc2c(c1)CCC[C@H](c1ccc(F)cc1F)[C@@H]2c1ccc(OCCN2CC(CF)C2)cc1 (racemic) | 19 | DC50 (Estrogen receptor): 22.7 nM; IC50 [4]: > 40 µM
19 | Oc1ccc2c(c1)OC[C@H](c1ccc(F)cc1F)[C@@H]2c1ccc(OCCN2CC(CF)C2)c(F)c1 (racemic) |  | IC50 [4]: 6.4 µM
20 | Oc1ccc2c(c1)OC[C@H](c1ccc(Cl)cc1F)[C@@H]2c1ccc(OCCN2CC(CF)C2)cc1 (racemic) | 4.2 | 
21 | O=C(CN1CC(CF)C1)Nc1ccc([C@@H]2c3ccc(O)cc3OC[C@@H]2c2ccc(F)cc2F)cc1 (racemic) | 243 | 
22 | Cc1cc(F)ccc1[C@H]1CSc2cc(O)ccc2[C@H]1c1ccc(OCCN2CC(CF)C2)cc1 (racemic) | 0.8 | 
23 | Cn1cc([C@H]2COc3cc(O)ccc3[C@H]2c2ccc(OCCN3CC(CF)C3)cc2)cn1 (racemic) | 38 | DC50 (Estrogen receptor): 98 nM
